Laboratory results as given in article PMC11851430, “Workflow for E3 Ligase Ligand Validation for PROTAC Development” (ACS Chemical Biology, 2025).
Read-outs that look alike come from different tables or passages of the source. One block for each compound: values may come before it.

Experiments:
ITK^HiBiT = biological target: T1, ITK^HiBiT (Homo sapiens, UniProt Q08881); assay: HiBiT assay, Jurkat cells expressing ITK^HiBiT; type: cell-based; details: 6 h
T1 construct: HiBiT-ITK construct was cloned by PCR amplification of vector containing full-length; expressed in transfected cells
T1 sequence (Q08881 1-620): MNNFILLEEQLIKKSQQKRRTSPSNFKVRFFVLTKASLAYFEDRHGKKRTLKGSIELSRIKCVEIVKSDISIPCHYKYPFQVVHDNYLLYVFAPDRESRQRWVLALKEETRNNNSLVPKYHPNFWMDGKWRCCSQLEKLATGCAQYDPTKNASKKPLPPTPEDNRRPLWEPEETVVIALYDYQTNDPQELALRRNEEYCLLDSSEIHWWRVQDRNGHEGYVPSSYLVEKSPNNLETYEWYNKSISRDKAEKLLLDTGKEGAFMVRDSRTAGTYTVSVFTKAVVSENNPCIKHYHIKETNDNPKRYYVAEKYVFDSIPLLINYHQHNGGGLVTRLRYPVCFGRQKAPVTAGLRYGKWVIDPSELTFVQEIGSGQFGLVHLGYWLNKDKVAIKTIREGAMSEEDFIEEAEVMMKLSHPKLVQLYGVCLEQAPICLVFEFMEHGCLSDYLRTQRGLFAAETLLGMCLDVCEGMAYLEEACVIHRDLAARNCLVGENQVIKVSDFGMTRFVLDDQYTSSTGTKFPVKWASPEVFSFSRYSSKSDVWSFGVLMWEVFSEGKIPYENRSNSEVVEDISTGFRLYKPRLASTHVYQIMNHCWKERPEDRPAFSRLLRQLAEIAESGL
Experimental: Cell culture. Human MV4-11 ([…]) and human Jurkat ([…]) cells were cultured in RPMI- […]
1640 medium whereas human HEK293 ([…]) cells were cultured in DMEM medium at 37 °C in 5% CO2. Both media were supplemented with 10% FBS and 1% penicillin/streptomycin.
Cloning. HiBiT-ITK construct was cloned by PCR amplification of vector containing full-length
ITK. The PCR product was inserted into pRRL-PGK-HiBiT entry vector using AgeI/MluI sites.
The following primers were used for cloning HiBiT-ITK; forward: […]
Cell line generation. The stable cell line MV4-11 AURORA−HiBiT was generated as previously described.14 Lentiviral infection was used to generate the stable Jurkat HiBiT cell line.
Lentivirus was produced using plasmids psPAX2, pMD2.G, and HiBiT-ITK plasmid in HEK293 cells. Jurkat cells were infected with filtered virus supernatant and selected after 48 h of infection for the generation of the stable JurkatITK-HiBiT cell line.
HiBiT Measurements. HiBiT assay was performed as described previously. 14 Briefly, MV4-11 and Jurkat HiBiT cells were seeded and treated with compounds for the indicated time. Nano-Glo HiBiT Lytic Detection System (Promega) was used for the assay and luminescence was measured on a Tecan Spark Multiplate reader (Tecan). DC50s were calculated using the dose-response (four parameters) equation in Prism (GraphPad).

AURKA [1] = biological target: T2, AURKA (Homo sapiens, UniProt O14965); assay: cell-based; parameters: species or system HEK293T; NanoBRET tracer displacement in intact cells, NanoLuc fusion protein, Tracer K10; details: intact cells; read-out: AURKA intact (IC50±sd)/µM
T2 sequence (O14965 1-403): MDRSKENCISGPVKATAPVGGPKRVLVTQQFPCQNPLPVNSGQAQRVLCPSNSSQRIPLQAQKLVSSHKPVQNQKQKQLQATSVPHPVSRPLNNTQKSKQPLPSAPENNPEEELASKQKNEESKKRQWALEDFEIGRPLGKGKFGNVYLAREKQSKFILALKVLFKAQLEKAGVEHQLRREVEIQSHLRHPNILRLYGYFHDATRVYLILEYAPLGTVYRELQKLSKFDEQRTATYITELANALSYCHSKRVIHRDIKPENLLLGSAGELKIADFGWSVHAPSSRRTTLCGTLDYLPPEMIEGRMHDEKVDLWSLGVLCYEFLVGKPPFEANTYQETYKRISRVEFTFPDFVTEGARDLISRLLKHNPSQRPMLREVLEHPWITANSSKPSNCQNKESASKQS
From the text: (§1) Compounds were pipetted at various concentrations using an Echo acoustic dispenser (Labcyte), immediately followed by Tracer K10 (Promega, Tracer DB ID: T000008) for AAK1 and Aurora A and VHL Tracer (Promega, Tracer DB ID: T000019) for VHL, at an optimum KD concentration chosen from TracerDB (tracerdb.org), respectively.

full-length AAK1 = full-length AAK1 (Homo sapiens, UniProt Q2M2I8); assay: cell-based; parameters: species or system HEK293T; NanoBRET tracer displacement in intact cells, NanoLuc fusion protein, Tracer K10; details: intact cells; read-out: AAK1 intact (IC50±sd)/µM
full-length AAK1, sequence (Q2M2I8 whole entry, the tested form may be a part): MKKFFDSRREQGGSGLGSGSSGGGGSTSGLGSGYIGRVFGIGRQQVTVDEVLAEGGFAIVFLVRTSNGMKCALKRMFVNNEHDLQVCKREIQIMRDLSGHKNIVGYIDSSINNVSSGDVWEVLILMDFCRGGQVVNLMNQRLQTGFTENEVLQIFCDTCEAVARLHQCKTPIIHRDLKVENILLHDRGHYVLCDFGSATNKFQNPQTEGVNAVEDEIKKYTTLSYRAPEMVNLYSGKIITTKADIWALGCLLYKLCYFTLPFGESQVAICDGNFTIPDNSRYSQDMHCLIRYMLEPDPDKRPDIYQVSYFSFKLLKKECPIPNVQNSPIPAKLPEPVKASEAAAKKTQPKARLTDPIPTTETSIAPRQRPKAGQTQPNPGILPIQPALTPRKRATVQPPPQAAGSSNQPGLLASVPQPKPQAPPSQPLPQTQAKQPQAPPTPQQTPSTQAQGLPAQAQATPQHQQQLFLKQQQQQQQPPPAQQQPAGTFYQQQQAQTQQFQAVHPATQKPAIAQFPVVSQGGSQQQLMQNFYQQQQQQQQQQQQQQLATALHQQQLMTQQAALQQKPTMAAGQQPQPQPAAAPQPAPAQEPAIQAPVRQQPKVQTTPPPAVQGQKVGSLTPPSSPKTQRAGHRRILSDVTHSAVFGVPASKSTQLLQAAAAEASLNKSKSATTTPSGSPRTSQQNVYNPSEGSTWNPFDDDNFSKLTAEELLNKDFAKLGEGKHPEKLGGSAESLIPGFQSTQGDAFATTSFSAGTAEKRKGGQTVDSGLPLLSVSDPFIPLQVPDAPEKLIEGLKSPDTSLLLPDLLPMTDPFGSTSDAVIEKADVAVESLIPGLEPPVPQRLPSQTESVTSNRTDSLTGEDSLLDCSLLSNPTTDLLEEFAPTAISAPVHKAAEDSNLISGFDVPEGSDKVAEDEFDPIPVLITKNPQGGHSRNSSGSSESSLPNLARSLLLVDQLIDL
From the text: as §1

AURKA [2] = biological target: T2, AURKA; assay: cell-based; parameters: species or system HEK293T; NanoBRET tracer displacement in permeabilized cells, NanoLuc fusion protein, Tracer K10; details: permeabilized cells; read-out: AURKA permeabilized (IC50±sd)/µM
[3] = system: kinase expression levels in Jurkat cells; assay: Label-free quantitative proteomics of kinase parent inhibitors; type: cell-based, human; details: 6 h
Experimental: CO2. After incubation, the BRET signals were measured by a PHERAstar plate reader (BMG Labtech) following the same procedure as intact NanoBRET® measurement. Competitive displacement data were then normalized to controls and were plotted using GraphPad Prism 9 software employing a normalized 3-parameter curve fit with the following equation: […]
The effects of the compounds on cell viability was determined using the CellTiter-Glo® 2.0 Cell Viability Assay (Promega: G9241) following manufacturer’s protocol. Ten µL of Jurkat cells at […]
After equilibration, PROTACs were titrated at various concentrations using an Echo acoustic […]
volume of CellTiter-Glo® 2.0 reagent (10 µL) was added to each well and cells were incubated for 10 minutes at room temperature. Filtered luminescence was measured on a PHERAstar plate reader (BMG Labtech) and data was evaluated using GraphPad Prism 9 software employing a normalized curve it with the following equation: Y=Bottom + (Top-Bottom)/(1+10(LogEC50-X) *HillSlope).
Sample preparation. Jurkat cells (ATCC © HTB-22) were cultured in RPMI (Thermo:
Cells were seeded in 6 well plates (Greiner:
50 µl of SDS Lysis Buffer (2% SDS, 50 mM TRIS pH 8.5, 10 mM TCEP, 40 mM CAA) was added to each sample. Cells were transferred into low binding reaction tubes (Eppendorf: […]
Protein yield was determined by […]

DC50 (ITK^HiBiT): 937 nM | Dmax (ITK^HiBiT): ≤ 71%
SMILES: Cc1ncsc1-c1ccc(CNC(=O)[C@@H]2C[C@@H](O)CN2C(=O)[C@@H](NC(=O)CCOCCOCCOCCN2CCN(c3cc(Nc4cc(C5CC5)[nH]n4)nc(Nc4ccc(CC#N)cc4)n3)CC2)C(C)(C)C)cc1 [4-a]

IC50 (AURKA [1]): 5.04 ± 1.12 µM | IC50 (full-length AAK1): 0.108 ± 0.042 µM | IC50 (AURKA [2]): 1.89 ± 0.025 µM
SMILES: Cc1ncsc1-c1ccc(CNC(=O)[C@@H]2C[C@H](O)CN2C(=O)[C@@H](NC(=O)CCOCCOCCOCCN2CCN(c3cc(Nc4cc(C5CC5)[nH]n4)nc(Nc4ccc(CC#N)cc4)n3)CC2)C(C)(C)C)cc1 [4-a^neg]

DC50 (ITK^HiBiT): 42 nM | Dmax (ITK^HiBiT): ≤ 71% | concentration at which a hook effect was observed (ITK^HiBiT): > 1 µM
SMILES: Cc1ncsc1-c1ccc(CNC(=O)[C@@H]2C[C@@H](O)CN2C(=O)[C@@H](NC(=O)CCOCCOCCOCCOCCN2CCN(c3ccc(Nc4ncc(Cl)c(Nc5ccccc5C(N)=O)n4)cc3)CC2)C(C)(C)C)cc1 [6-b]

SMILES: CCOC(=O)c1cc(Nc2cc(C3CC3)[nH]n2)nc(Nc2ccc(CC#N)cc2)n1 [compound 5]
kinases with reduced protein levels ([3]; 0.25 μM): reduced protein levels of PLK1 and BUB1 | kinases with reduced protein levels ([3]; 2.5 μM): no additional kinases showed lower protein levels
